Measurements as given in ChEMBL document CHEMBL5226349, “Novel Antimicrobial 8-Hydroxyquinoline-Based Agents: Current Development, Structure-Activity Relationships, and Perspectives” (J Med Chem, 2021).
Values after ≈ are worked out from the molar mass of the structure shown.

Key:
[1] = molecular target: Botulinum neurotoxin type A (Clostridium botulinum, UniProt P0DPI0); assay: Inhibition of Botulinum neurotoxins/A
[2] = test system: Mycobacterium tuberculosis; assay: Antibacterial activity against Mycobacterium tuberculosis; type: functional
[3] = Inhibition of Aeromonas proteolytica aminopeptidase; parameters: species or system Vibrio proteolyticus
[4] = Inhibition of human zinc metalloprotease
[5] = Inhibition of Mycobacterium tuberculosis Zmp1
[6] = Inhibition of Mycobacterium tuberculosis MetAP1c
[7] = Inhibition of Mycobacterium tuberculosis MetAP1a
Morganella morganii = assay: Antibacterial activity against Morganella morganii; type: functional
[8] = test system: Corynebacterium diphtheriae; assay: Antibacterial activity against Corynebacterium diphtheriae NCTC 10356; type: functional
Staphylococcus aureus [9] = assay: Antibacterial activity against Staphylococcus aureus ATCC 25923; type: functional
Escherichia coli = assay: Antibacterial activity against Escherichia coli ATCC 25922; type: functional
[10] = molecular target: Methionine aminopeptidase 1 (Homo sapiens, UniProt P53582); assay: Inhibition of human MetAP1
Citrobacter freundii = assay: Antibacterial activity against Citrobacter freundii; type: functional
Shewanella putrefaciens = assay: Antibacterial activity against Shewanella putrefaciens ATCC 8071; type: functional
Salmonella enteritidis = assay: Antibacterial activity against Salmonella enteritidis; type: functional, Salmonella enterica subsp. enterica serovar Enteritidis; conditions: Salmonella enterica
Listeria monocytogenes = assay: Antibacterial activity against Listeria monocytogenes; type: functional
Stutzerimonas stutzeri = assay: Antibacterial activity against Pseudomonas stutzeri ATCC 17587; type: functional
[11] = test system: Staphylococcus epidermidis; assay: Antibacterial activity against Staphylococcus epidermidis ATCC 12228; type: functional
Salmonella typhimurium = assay: Antibacterial activity against Salmonella typhimurium ATCC 13311; type: functional, Salmonella enterica subsp. enterica serovar Typhimurium; conditions: Salmonella enterica
Aeromonas hydrophila = assay: Antibacterial activity against Aeromonas hydrophila; type: functional
[12] = test system: Achromobacter xylosoxidans; assay: Antibacterial activity against Achromobacter xylosoxidans ATCC 2706; type: functional
Serratia marcescens = assay: Antibacterial activity against Serratia marcescens ATCC 8100; type: functional
[13] = molecular target: Methionine aminopeptidase 2 (Homo sapiens, UniProt P50579); assay: Inhibition of human MetAP2
Bacillus cereus = assay: Antibacterial activity against Bacillus cereus; type: functional
Shigella dysenteriae = assay: Antibacterial activity against Shigella dysenteriae; type: functional
Candida = assay: Antifungal activity against Candida; type: functional
Staphylococcus aureus [14] = assay: Antibacterial activity against Staphylococcus aureus ATCC 29213; type: functional
Salmonella enterica = assay: Antibacterial activity against Salmonella choleraesuis ATCC 10708; type: functional
Arthrodermataceae = assay: […] activity against Arthrodermataceae; type: functional
Plesiomonas shigelloides = assay: Antibacterial activity against Plesiomonas shigelloides; type: functional
Bacillus subtilis [15] = assay: Antibacterial activity against Bacillus subtilis ATCC 6633; type: functional
Enterococcus faecalis [16] = assay: Antibacterial activity against Enterococcus faecalis ATCC 33186; type: functional
Klebsiella pneumoniae = assay: Antibacterial activity against Klebsiella pneumoniae ATCC 700603; type: functional
Micrococcus luteus = assay: Antibacterial activity against Micrococcus luteus ATCC 10240; type: functional
Enterococcus faecalis [17] = assay: Antibacterial activity against Enterococcus faecalis ATCC 29212; type: functional
Candida albicans [18] = assay: Antibiofilm activity against Candida albicans; type: functional
Bacillus subtilis [19] = assay: Antibacterial activity against Bacillus subtilis; type: functional
Salmonella sp. = assay: Antibacterial activity against Salmonella sp.; type: functional
Aspergillus = assay: Antifungal activity against Aspergillus; type: functional
Chlamydia trachomatis = assay: Bactericidal activity against Chlamydia trachomatis; type: functional
[20] = Inhibition of Mycobacterium tuberculosis FBA
[21] = molecular target: Botulinum neurotoxin type F (Clostridium botulinum, UniProt P30996); assay: Inhibition of Botulinum neurotoxins/F
[22] = Inhibition of bacterial New Delhi metallo-beta-lactamase 1; parameters: species or system Bacteria
[23] = Inhibition of bacterial VIM-2; parameters: species or system Bacteria
Candida albicans [24] = assay: Antifungal activity against Candida albicans; type: functional
Microsporum = assay: Antifungal activity against Microsporum; type: functional
Trichophyton = assay: Antifungal activity against Trichophyton; type: functional
[25] = test system: Mycobacterium tuberculosis; assay: Antibacterial activity against aged non-growing Mycobacterium tuberculosis; type: functional

Chain of Methionine aminopeptidase 2 (P50579 whole entry): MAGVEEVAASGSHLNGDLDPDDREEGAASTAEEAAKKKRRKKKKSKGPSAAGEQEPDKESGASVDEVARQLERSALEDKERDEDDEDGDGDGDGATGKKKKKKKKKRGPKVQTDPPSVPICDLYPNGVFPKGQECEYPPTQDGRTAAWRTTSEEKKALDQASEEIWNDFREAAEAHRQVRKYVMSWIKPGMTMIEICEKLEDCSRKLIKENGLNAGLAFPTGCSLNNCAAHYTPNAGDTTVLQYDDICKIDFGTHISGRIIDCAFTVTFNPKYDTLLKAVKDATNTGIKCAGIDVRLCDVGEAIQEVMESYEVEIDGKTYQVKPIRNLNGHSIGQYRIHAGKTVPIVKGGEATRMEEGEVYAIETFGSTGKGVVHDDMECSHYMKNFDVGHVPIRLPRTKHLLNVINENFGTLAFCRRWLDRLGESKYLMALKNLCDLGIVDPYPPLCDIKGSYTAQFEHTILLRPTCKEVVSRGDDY
Chain of Botulinum neurotoxin type A (P0DPI0 2-448 limits assumed): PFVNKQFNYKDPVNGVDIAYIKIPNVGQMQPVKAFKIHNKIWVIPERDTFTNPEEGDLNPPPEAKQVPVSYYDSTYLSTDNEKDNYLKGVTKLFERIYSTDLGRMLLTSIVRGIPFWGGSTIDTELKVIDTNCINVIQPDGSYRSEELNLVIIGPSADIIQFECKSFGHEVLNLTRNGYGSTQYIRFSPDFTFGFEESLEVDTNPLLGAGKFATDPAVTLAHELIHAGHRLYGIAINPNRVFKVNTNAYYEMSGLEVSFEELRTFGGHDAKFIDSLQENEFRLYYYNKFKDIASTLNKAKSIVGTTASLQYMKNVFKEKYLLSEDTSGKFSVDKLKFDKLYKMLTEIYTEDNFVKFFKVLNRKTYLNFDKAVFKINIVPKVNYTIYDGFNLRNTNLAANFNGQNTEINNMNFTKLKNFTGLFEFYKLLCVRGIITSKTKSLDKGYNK
Chain of Botulinum neurotoxin type F (P30996 1-436 limits assumed): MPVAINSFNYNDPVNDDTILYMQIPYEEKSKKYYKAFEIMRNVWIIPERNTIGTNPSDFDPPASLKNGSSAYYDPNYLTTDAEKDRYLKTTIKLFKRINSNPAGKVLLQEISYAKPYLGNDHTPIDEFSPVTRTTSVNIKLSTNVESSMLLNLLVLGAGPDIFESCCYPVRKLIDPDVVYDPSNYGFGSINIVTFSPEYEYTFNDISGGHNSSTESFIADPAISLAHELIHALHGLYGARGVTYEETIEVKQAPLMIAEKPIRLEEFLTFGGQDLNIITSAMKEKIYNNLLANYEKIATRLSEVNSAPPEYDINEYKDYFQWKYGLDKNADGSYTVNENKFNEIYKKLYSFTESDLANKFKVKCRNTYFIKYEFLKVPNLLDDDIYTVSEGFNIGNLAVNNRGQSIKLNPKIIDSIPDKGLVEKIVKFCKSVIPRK

`O=S(=O)(NC(c1cccc(F)c1)c1cc(Cl)c2cccnc2c1O)c1ccccc1` (centres undefined) gave an IC50 [1] of 5.8 µM.

Work on `O=C(Nc1cccc(C(F)(F)F)c1)c1ccc2cccc(O)c2n1` yielded an MIC [2] of 24 µM (≈ 7.97 µg/mL).

In the case of `CC1CC(C)CN(c2nc(Nc3ccc(C#N)c(C(F)(F)F)c3)nc(Oc3cccc4cccnc34)n2)C1` (centres undefined), the MIC [2] is reported as 6 µM (≈ 3.12 µg/mL).

`O=C(O)c1ccc2ccc(/C=C/c3ccccc3Cl)nc2c1O` gave an MIC [2] of 120 µM (≈ 39.1 µg/mL).

With `Oc1ccc(Cl)c2cccnc12` [CLOXYQUIN] the Ki [3] was 0.16 µM.

For `Cc1ccc2ccc(C(=O)NCc3ccccc3)c(O)c2n1`, the MIC [2] was over 500 µM.

Work on `O=C(NOCc1ccccc1)c1ccc2cccc(O)c2n1` yielded an IC50 [4] of at least 1 µM and an IC50 [5] of 0.011 µM.

Molecule `Oc1c(Cl)cc(Cl)c2ccc(/C=C/c3ccc(/C=C/c4ccc5c(Cl)cc(Cl)c(O)c5n4)cc3)nc12` has an MIC [2] of over 72.2 µM.

For `CONC(=O)c1ccc2cccc(O)c2n1`, the IC50 [5] was 0.115 µM.

For `O=C(Nc1ccccc1Br)c1ccc2cccc(O)c2n1`, the MIC [2] was 23 µM (≈ 7.89 µg/mL).

Work on `CNc1ccc2cccc(O)c2n1` yielded an MIC [2] of 6.4 µM (≈ 1.11 µg/mL).

In the case of `O=[N+]([O-])c1ccc(O)c2ncccc12` [NITROXOLINE], the IC50 [3] is reported as 29 µM.

In the case of `CC(=O)Oc1c(Cl)cc(Cl)c2cccnc12`, the IC50 [6] is reported as 4.92 µM and the IC50 [7] is reported as 4.87 µM.

Work on `NS(=O)(=O)c1cc(Cl)c2cccnc2c1O` yielded a Ki [3] of over 100 µM.

Work on `Cc1ccc2cccc(O)c2n1` [8-HYDROXY QUINALDINE] yielded a Ki [3] of over 100 µM.

With `Oc1c(I)cc(Cl)c2cccnc12` [CLIOQUINOL] the MIC (Morganella morganii) was over 26.2 µM, the MIC [8] was 26.2 µM (≈ 8 µg/mL) and the MIC (Staphylococcus aureus [9]) was 26.2 µM (≈ 8 µg/mL). It also gave an MIC (Escherichia coli) of over 26.2 µM, an IC50 [10] of 84.7 µM and a Ki [3] of over 100 µM. For the same molecule, the MIC (Citrobacter freundii) was over 26.2 µM, the MIC (Shewanella putrefaciens) was over 26.2 µM and the MIC (Salmonella enteritidis) was over 26.2 µM. The MIC (Listeria monocytogenes) was 26.2 µM (≈ 8 µg/mL), the MIC (Stutzerimonas stutzeri) was over 26.2 µM and the MIC [11] was 26.2 µM (≈ 8 µg/mL). It also gave an MIC (Salmonella typhimurium) of over 26.2 µM, an MIC (Aeromonas hydrophila) of over 26.2 µM and an MIC [12] of over 26.2 µM. It also gave an MIC [2] of 32.7 µM (≈ 10 µg/mL), an MIC (Serratia marcescens) of over 26.2 µM and an IC50 [13] of 80.4 µM. The MIC (Bacillus cereus) was 26.2 µM (≈ 8 µg/mL), the MIC (Shigella dysenteriae) was over 26.2 µM and the MIC (Candida) was 0.206 µM (≈ 0.0629 µg/mL). For the same molecule, the MIC (Staphylococcus aureus [14]) was 26.2 µM (≈ 8 µg/mL), the MIC (Salmonella enterica) was over 26.2 µM and the MIC (Arthrodermataceae) was 0.409 µM (≈ 0.125 µg/mL). For the same molecule, the MIC (Plesiomonas shigelloides) was over 26.2 µM, the MIC (Bacillus subtilis [15]) was 26.2 µM (≈ 8 µg/mL) and the MIC (Enterococcus faecalis [16]) was 26.2 µM (≈ 8 µg/mL). The IC50 [6] was 11.2 µM, the MIC (Klebsiella pneumoniae) was over 26.2 µM and the MIC (Micrococcus luteus) was 26.2 µM (≈ 8 µg/mL). It also gave an MIC (Enterococcus faecalis [17]) of 26.2 µM (≈ 8 µg/mL) and an IC50 [7] of 9.25 µM.

Work on `CC(=O)Oc1c(Br)cc(Br)c2ccc(C)nc12` yielded an MIC (Candida albicans [18]) of 12.5 µM (≈ 4.49 µg/mL).

With `Cc1nc2[nH]nc(/N=N/c3ccc(O)c4ncccc34)c2c(C)c1Br` the MIC (Bacillus subtilis [19]) was 19.7 µM (≈ 7.81 µg/mL) and the MIC (Salmonella sp.) was 4.91 µM (≈ 1.95 µg/mL).

For `COc1ccc(CN2CCN(c3nc(Nc4ccc(C#N)cc4)nc(Oc4cccc5cccnc45)n3)CC2)c(OC)c1OC`, the MIC (Aspergillus) was 9.8 µM (≈ 5.93 µg/mL).

Work on `Clc1cc2c(c3ncccc13)OCN(C1CCCCC1)C2` yielded an IC50 [6] of 3.76 µM and an IC50 [7] of 4.3 µM.

Molecule `O=C(O)c1cn(C2CC2)c2cc(N3CCN(C(=O)c4ccc5cccc(O)c5n4)CC3)c(F)cc2c1=O` has an MBC (Chlamydia trachomatis) of 5 µM (≈ 2.51 µg/mL).

Work on `Oc1cccc2ccc(/C=C/c3cccc(F)c3)nc12` yielded an MIC [2] of 13 µM (≈ 3.45 µg/mL).

Molecule `Oc1cccc2ccc(/C=C/c3ccccc3Cl)nc12` has an MIC [2] of 5.8 µM (≈ 1.63 µg/mL).

`O=C(O)c1ccc2cccc(O)c2n1` gave an IC50 [20] of 10 µM and an IC50 [5] of over 10 µM.

`C=CCONC(=O)c1ccc2cccc(O)c2n1` showed an IC50 [5] of 0.123 µM.

In the case of `Nc1ccc2cccc(O)c2n1`, the MIC [2] is reported as 4.6 µM (≈ 0.737 µg/mL).

`Cc1ccc2[nH]c(-c3ccccc3)c(C(NNC(=O)c3ccncc3)c3ccc4cccnc4c3O)c2c1` (centres undefined) gave an MIC [2] of 100 µM (≈ 50 µg/mL).

For `Cc1ccnc(NC(c2ccccc2)c2ccc3cccnc3c2O)c1` (centres undefined), the IC50 [21] was 14.9 µM.

`Oc1ccc(C(F)(F)F)c2cccnc12` showed a Ki [3] of 0.37 µM.

Molecule `Oc1cccc2ccc(N3CCCCC3)nc12` has an MIC [2] of over 20 µM.

For `O=C(O)c1ccc2cccnc2c1O`, the IC50 [22] was 0.76 µM and the IC50 [23] was 0.74 µM.

With `O=C(NCCO[C@H]1O[C@H](CO)[C@@H](O)[C@H](O)[C@@H]1O)c1ccc(O)c2ncccc12` the MIC (Candida albicans [24]) was 5000 µM (≈ 1970 µg/mL).

`OC(COc1ccccc1)COc1cccc2cccnc12` (centres undefined) showed an MIC [2] of 42.3 µM (≈ 12.5 µg/mL).

Molecule `COc1cc(OC)nc(Nc2ccc3cccnc3c2O)n1` has an MIC (Microsporum) of 3.35 µM (≈ 0.999 µg/mL) and an MIC (Trichophyton) of 3.35 µM (≈ 0.999 µg/mL).

`Oc1c(Br)cc(Cl)c2cccnc12` showed an IC50 [10] of 105 µM, an MIC [25] of 2.51 µM (≈ 0.649 µg/mL) and an MIC [2] of 19.3 µM (≈ 5 µg/mL). For the same molecule, the IC50 [13] was 112 µM, the IC50 [6] was 4.92 µM and the IC50 [7] was 5.44 µM.

Molecule `Cc1ccc2ccc(C(=O)NCc3ccc(F)cc3)c(O)c2n1` has an MIC [2] of over 500 µM.
